One series concerns MLS ovarian carcinoma. The series is described as follows: Fluorescence imaging, MLS ovarian carcinoma. Format: in vivo, mice. The following applies: 8 mg/kg i.v. How it is done:
Conjugate 26 (8 mg/kg) was i.v. injected into animals bearing MLS ovarian carcinoma. Images on IVIS were taken after 8 and 14 hours.

Another series relates to CT26luc colon cancer. The series is described as follows: In vivo PDT (VTP) of CT26luc colon cancer. More on the design: species or system CD-1 nude male mice. The following applies: i.v. injected and illuminated after 8 hours. How it is done: CD-1 nude male mice bearing the different tumor xenografts were anesthetized and 24 (5-24 mg/kg body weight) or 8 (9 mg/kg body weight) were i.v. injected via the tail vein. The tumors were trans-cutaneously illuminated after 3.5, 6, 8, 12 and 24 hours for 5-30 min at light doses of 30-360 J/cm^2. Intensity of illumination: 100-200 mW/cm^2. After treatment, the mice were returned to the cage. The mice were considered cured if tumor free for 90 days after treatment. Mice were euthanized when the tumor diameter reached 15 mm. […] (5) Mixture of 8 and cycloRGDfK: the mice were i.v. injected with mixture of 8 with cycloRGDfK and illuminated after indicated time point. (6) cycloRGDfK alone: the mice were i.v. injected with cycloRGDfK and illuminated after indicated time point. Images were taken at indicated time post PDT.
FIGS. 32A-32F show the therapeutic results of applying 15 mg/kg, 10 min illumination (60 J/cm^2), 8 hours post injection of conjugate 24 to mice bearing CT26luc tumors (bolded protocol in Table 5). 32A—conjugate 24 was i.v. injected 15 mg/kg, 10 min illumination (60 J/cm^2) 8 hours post injection; 32B—overlaid images taken after i.p. injection of luciferin to the mouse described in 32A, using the IVIS system. The first image is black and white, which gives the photograph of the animal. The second image is color overlay of the emitted photon data. […]

A short description of series [1]: Solubilization for in vitro experiments (water solubility). In kind it is physicochemical. How it is done: Compound 24 was dissolved in 100% DMSO before use and diluted in saline to a final DMSO concentration of 5% v/v.
The test system of another series is H5V endothelial cells. The series is described as follows: Phototoxicity assay (Neutral Red cell viability after illumination). In kind it is cell-based, mouse.
Series [2] deals with orthotopic human breast MDA-MB-231-RFP primary tumor. Kind of series: Whole-body NIR fluorescence imaging of accumulation in orthotopic MDA-MB-231-RFP tumor. In kind it is in vivo, CD-1 nude female mice. To be noted: 9 mg/kg i.v., large necrotic tumors, one hour post injection. How it is done:
RFP fluorescence, in units of photons/sec, was detected using 525/50 nm and 612/75 nm filter sets for excitation and emission, respectively, with one second integration time. NIR fluorescence of the different photosensitizers, in units of photons/sec, was detected using 680/30 nm and 847/75 nm filter sets for excitation and emission, respectively, at an integration time of five seconds. Background fluorescence for all quantitative analyses was calculated by recording the average fluorescence (photons/sec)/cm^2 from three animals in three different areas around and within the tumor of untreated animals provided with a similar diet for three days before measurements. Drug accumulation was determined following i.v. administration of molar equivalents of the photosensitizer to the tail vein of mice fed with a chlorophyll-free, purified diet for three days before administration (in order to reduce skin and food autofluorescence). Before imaging, mice were anesthetized by intraperitoneum injection of a 30 μl mixture of 85:15 ketamine:xylazine.
In order to study the accumulation of the photosensitizer in primary mammary tumors, the MDA-MB-231-RFP cells (4×10^6) were implanted orthotopicaly in the mammary pad of the mice. Tumors developed to the wanted size, bigger than 1 cm^3, within 3-4 weeks.
Tumor imaging main filter set comprised: excitation filter 500-550 nm, emission filter 575-650 nm; Background filter set for subtraction the tissue auto fluorescence: excitation filter 460-490 nm, emission filter 575-650 nm. Photosensitizer imaging main filter set: excitation filter 665-695 nm, emission filter 810-875 nm.
Images were taken at these time points post drug injection: 15 min, 1, 2, 3, 4.5, 6, 7.5, 9, 24 hr, 2, 3, 4, 5, 6, 7 days.

Series [3] relates to large MDA-MB-231-RFP tumors. The series is described as follows: Biodistribution and pharmacokinetics (fluorescence of tissue extracts) in MDA-MB-231-RFP tumor-bearing mice. The following applies: 9 mg/kg i.v. In kind it is in vivo, CD-1 nude female mice. How it is done:
Mammary fat pads (left, bottom nipple) of female mice were inoculated with harvested MDA-MB-231-RFP human breast cancer cells (4×10^6 in […] saline). Tumors were classified as ‘small’ (˜100 mm^3) at one to two weeks from time of cell injection, or ‘large’ after three to four weeks (necrotic tumors, 250 to 500 mm^3). To avoid tumor burden, mice were sacrificed (cervical dislocation) when tumor size reached 10% of body weight or at 90 days post-implantation. External caliper measurements, length (L), width (W) and depth (D) were used to calculate in vivo tumor volume according to the formula: V=L/2·W/2·D/2·π·4/3.
Anesthetized mice were i.v. injected (tail vein) with the different photosensitizer (pigment) conjugates (control group: untreated). The mice were sacrificed at indicated time points and samples of the indicated organs and tissues (blood, tumor, intestine, liver, spleen, kidneys, testies, heart, lung, brain, skin, muscle and fat) were placed in pre-weighted vials and immediately frozen and stored at −20° in the dark until analyzed. Three methods were used for sample preparation: (1) Each sample was thawed and homogenized in DDW (1:10 w/v). Aliquots of the homogenate (500 μl) were lyophilized in Eppendorf test tubes. Then, 60 μl of HNO3 (70%, TraceSelect, Fluka) were added to each dry sample, incubated for 1 h at 90° C. and diluted with DDW to 3 ml. (2) Each sample was diluted (1:2 w/v) in HNO3 (70%, TraceSelect, Fluka). The samples were sonicated for 30 min in boiled water, and left for at least 48 h at room temperature. (3) Applied for assessment of non-metalated conjugates. Each sample was thawed and homogenized in methanol (100 mg tissue/ml) and extracted the next morning by centrifugation (13,000×g, five minutes) at room temperature. In methods (1) and (2), 140 μl from each sample was added to 3.36 ml DDW to give total volume of 3.5 ml and incubated for 1 h at 90° C. Pd concentrations were determined by ICP-MS. According to method (3), the supernatants were diluted in methanol by a factor of two and the drug concentration was determined by fluorescence measurements (Varian-Cary Eclipse spectrofluorimeter, Palo Alto, Calif., USA) at 750 nm (peak values). Drug concentrations were interpolated from a fluorescence calibration curve, based on predetermined drug concentrations using absorption spectroscopy.

In a further series the test system is MDA-MB-231 breast tumor. The series is described as follows: Biodistribution (Cu by ICP-MS) in mice bearing MDA-MB-231 breast tumor. In kind it is in vivo, female CD-1 nude mice. As for the experimental part:
The biodistribution of Cu-conjugate 15 was determined in female CD-1 nude mice of 6-8 weeks-old, weighing 20-23 g and bearing 6-9-mm^3 tumors of human adenocarcinoma cells obtained from breast tissue (MDA-MB-231 cells). The conjugate (30 mg/ml in 5% DMSO/PBS) was injected to the tail vein, and the animals were sacrificed in selected time points. Cu concentrations were determined by ICP-MS as described in Material and Methods.

Method for H5V endothelial cells: The light source for in vitro studies was home-built 100-W halogen lamp equipped with a high-pass filter (>650 nm, Safelight filter 1A Eastman Kodak Co., Rochester, N.Y., USA) and a 4-cm water filter. The lamp was used to illuminate (20 mW/cm^2/10 min (12 J/cm^2)) the culture plates from the bottom at room temperature in a dark room.
To determine the pigment photodynamic efficacy in vitro under standard conditions, cells were cultured in 96-well plates and preincubated for 15 or 90 min at 37° C. or 4° C., according to the indicated experiment protocol, with 0-25 μM conjugated or non-conjugated photosensitizer in different media conditions (culture medium DMEM/F12; 10% FCS in medium or 10 μM BSA in medium) in the absence or presence of excess free peptide (100 fold up to 1 mM). The cells were washed and illuminated (20 mW/cm^2 for 10 min). Plates were placed back in the culture incubator for 24 h. Cell survival was determined using Neutral Red cell viability assay. Cell survival was calculated as the percent of the dye accumulated in the untreated controls. […] Three kinds of controls were used: (i) light control: cells illuminated in the absence of pigments; (ii) dark control: cells treated with pigments but kept in the dark; and (iii) untreated cells that were kept in the dark.
Following photosensitization and a 24-h incubation period (37° C.), cell survival was determined by Neutral Red (Fluka Chemie, Buchs, Switzerland) accumulation. After subtraction of assay blanks, net optical density (570 nm) was computed as the average value of triplicates determinations. Cell survival was calculated as the percent of the dye accumulated in the untreated controls.
H5V cells were incubated for 90 min at 37° C. with 0-25 μM of conjugate 23 or compound 10 in different media conditions, illuminated and their survival was determined using Neutral Red viability assay as described in Materials and Methods.
Targeted phototoxicity is defined as one inhibited by the free ligand. Thus, further experiments attempted to block phototoxicity by administration of the free cycloRGDfK, which competes for the cellular binding of conjugate 23. H5V cells were incubated for 90 min at 37° C. with 0-25 μM of compound 10 or conjugate 23 in different media (10% FCS in medium or 10 μM BSA in medium) in the absence or presence of free excess cycloRGDfK (100-fold up to 1 mM). The cells were illuminated and cell survival was determined using Neutral Red viability assay, as described above.
In order to test the endocytosis theory and since the endocytic process is time- and temperature-dependent, H5V cells were incubated at 37° C. and 4° C. for 15 min with 0-20 μM of conjugate 23 in medium containing 10% FCS, in the presence or absence of excess cycloRGDfK (100-fold up to 1 mM). Cells were illuminated and their survival was determined as described above.
The phototoxicity of conjugate 24 was determined by monitoring the survival of cultured H5V endothelial cells following PDT. H5V cells were incubated for 2 hours at 37° C. with 0-25 μM conjugate 24 in culture medium DMEM/F12 with 10% FCS. The cells were illuminated and their survival was determined as described above.
Cells were incubated for 90 min at 37° C. in the presence of 0-20 μM conjugate 11 or compound 8 in 10 μM BSA in medium, illuminated and their survival was determined as described above.

“3^1-oxo-15-methoxycarbonylmethyl-Rhodobacteriochlorin 13^1-(2-sulfoethyl)amide-17^3-(GRGDSP)amide potassium salt [Conjugate 26]”: the “accumulation (fluorescence)” value in the series with MLS ovarian carcinoma (8 hours) is “did not present accumulation”; in the series on MLS ovarian carcinoma (14 hours), “a high level of fluorescence was observed in tumor and liver areas”.
On to `N=C(N)NCCC[C@@H]1NC(=O)[C@H](CCCCN)NC(=O)[C@@H](Cc2ccccc2)NC(=O)[C@H](CC(=O)O)NC(=O)CNC1=O` [cycloRGDfK], for which the “PDT effect of controls” value in the series with CT26luc colon cancer is reported as “no PDT effect”. In series [1], the water solubility entry is “Water insoluble”.
Consider “Palladium 3-oxo-15-methoxycarbonylmethyl-Rhodobacteriochlorin-13^1-(2,3-dihydroxypropyl)amide potassium salt [Compound 10]”, for which the water solubility result in series [1] is listed as “Water insoluble”. The LD50 in the series with H5V endothelial cells (10 μM BSA in medium (90 min, 37° C.)) was 3.5 to 5 µM; in the series with H5V endothelial cells (10 μM BSA in medium (90 min, 37° C.), with free peptide in excess (cycloRGDfK)) it was 5 µM; in the series with H5V endothelial cells (10% FCS (90 min, 37° C.)), 5 to 7 µM; in the series with H5V endothelial cells (10% FCS (90 min, 37° C.), with free peptide in excess (cycloRGDfK)), 5 µM; in the series with H5V endothelial cells (culture medium (90 min, 37° C.)), 7 µM. Also, the “influence of excess cycloRGDfK on phototoxic effects” value with H5V endothelial cells (90 min, 37° C., 100-fold up to 1 mM) is “not influenced by the presence of excess cycloRGDfK”. The phototoxic effects result with H5V endothelial cells (different media, 90 min, 37° C., 0-25 μM) was “light- and drug concentration-dependent”.
Take “3^1-oxo-15-methoxycarbonylmethyl-Rhodobacteriochlorin 13^1-(2-sulfoethyl)amide potassium salt [Compound 25, reference compound]”: the specific tumor fluorescence result in series [2] is “No specific tumor fluorescence”. Also, the “accumulation in the tumor (tissue extracts)” value in series [3] is “no accumulation of 25 in the tumor at any time longer than one hour post administration”.
“Copper(II) 3^1-oxo-15-methoxycarbonylmethyl-Rhodobacteriochlorin 13^1-(2-sulfoethyl)amide-17^3-(cycloRGDfK)amide potassium salt [Conjugate 15]”: in the series on MDA-MB-231 breast tumor (at peak), the “tumor intensity in comparison with surrounding normal tissue” value was “about 3 fold”. In the series with MDA-MB-231 breast tumor (i.v. tail vein), the “time of peak accumulation in tumor after injection” value lay within 8 to 12 h.
